Values quoted from earlier work as cited in US20040132743A1 (DR. REDDY'S LABORATORIES LIMITED DR. REDDY'S LABORATORIES, …, priority 2002, published 2004).

Columns and labels:
[1] = studies in patients
[2] = amorphous form compared with crystalline form
[3] = in vivo

## O=C(O)COCCN1CCN(C(c2ccccc2)c2ccc(Cl)cc2)CC1 (racemic) [cetirizine]
[1]
  symptomatic relief of seasonal allergies: safe and effective, symptomatic relief of seasonal allergies

## CO/N=C(\C(=O)N[C@@H]1C(=O)N2C(C(=O)OC(C)OC(C)=O)=C(COC(N)=O)CS[C@H]12)c1ccco1 (stereo partly drawn) [amorphous form of cefuroxime axetil, cefuroxime axetil]
[2]
  bioavailability: higher bioavailability than its crystalline form

## O=C(O)COCCN1CCN([C@H](c2ccccc2)c2ccc(Cl)cc2)CC1 [Levocetirizine]
[3]
  side effects on the central nervous system: free from side effects on the central nervous system
